Tests used:
Format in all cases: cell-based, S. cerevisiae
Details in all cases: 1 uM small molecule, difference to activity without small molecule, average of two trials
[1] = biological target: T1, LexA (GSG)2mDHFR / B42 (GSG)rGR2 (UniProt P00375+P06536, C656G/F620S); test: β-galactosidase activity assay, strain V504Y
T1 construct: rat Glucocorticoid Receptor (aa 524-795) with point mutations; expressed in transfected cells; host or cells: S. cerevisiae FY250
T1 sequence (P00375 1-187): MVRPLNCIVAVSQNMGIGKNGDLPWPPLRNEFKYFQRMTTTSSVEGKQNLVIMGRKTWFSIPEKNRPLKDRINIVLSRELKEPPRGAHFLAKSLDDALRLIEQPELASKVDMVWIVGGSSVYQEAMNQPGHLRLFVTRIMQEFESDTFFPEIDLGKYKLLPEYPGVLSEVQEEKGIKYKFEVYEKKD
T1 sequence (P06536 524-795 F620S/C656G limits assumed): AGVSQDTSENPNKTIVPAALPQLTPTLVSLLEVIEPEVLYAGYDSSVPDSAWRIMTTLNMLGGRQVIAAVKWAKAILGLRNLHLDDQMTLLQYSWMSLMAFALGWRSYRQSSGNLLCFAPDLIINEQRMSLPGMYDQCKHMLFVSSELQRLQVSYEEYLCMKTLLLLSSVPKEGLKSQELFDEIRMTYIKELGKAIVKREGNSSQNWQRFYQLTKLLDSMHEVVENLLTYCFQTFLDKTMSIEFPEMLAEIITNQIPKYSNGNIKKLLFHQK
Text: (§1) Table III explains the components of each strain. Each strain was constructed from the parent yeast strain FY250 and also contains the pMW106 plasmid, which has the LacZ reporter gene that is turned on only in when the LexA DNA binding domain and the B42 activation are brought in tot he vicinity of each other. We use several different strains because we use DHFR from two different species, mDHFR is from murine, while eDHFR is from E. coli. We are asl oable to switch the small moleculebinding domains. For example, the strain containing LexA-eDHFR with B42-rGH2 is a different strain and behaves differently from the strain containing LexA-rGR2 with B42-eDHFR. We also put in short 6 amino acid linkers between the two domains of our protein chimeras and thus these are different strain as well.
(§2) The results in Table IV are averages of two separate trials. Each strain was examined with small molecules and without small molecules. The absolute activity is given as the β-galactisidase activity […]. The average β-galactosidse activity for a strain without small molecule (i.e. the negative control) was about 100 β-galactosidase units.

[2] = biological target: T2, LexA (GSG)2mDHFR / B42 rGR2 (UniProt P00375+P06536, C656G/F620S); test: β-galactosidase activity assay, strain V502Y
T2 construct: rat Glucocorticoid Receptor (aa 524-795) with point mutations; expressed in transfected cells; host or cells: S. cerevisiae FY250
T2 sequence (P00375 1-187): T1 sequence (P00375 1-187)
T2 sequence (P06536 524-795 F620S/C656G limits assumed): T1 sequence (P06536 524-795 F620S/C656G limits assumed)
Text: as §1, §2

LexA eDHFR / B42 rGR2 = biological target: T3, LexA eDHFR / B42 rGR2 (UniProt P06536+P0ABQ4, C656G/F620S); test: β-galactosidase activity assay, strain V493Y
T3 construct: rat Glucocorticoid Receptor (aa 524-795) with point mutations; expressed in transfected cells; host or cells: S. cerevisiae FY250
T3 sequence (P0ABQ4 1-159): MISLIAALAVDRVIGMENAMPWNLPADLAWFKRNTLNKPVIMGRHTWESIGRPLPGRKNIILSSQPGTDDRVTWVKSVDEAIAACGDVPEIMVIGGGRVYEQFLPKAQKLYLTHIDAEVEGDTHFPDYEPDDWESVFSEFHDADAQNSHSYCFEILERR
T3 sequence (P06536 524-795 F620S/C656G limits assumed): T1 sequence (P06536 524-795 F620S/C656G limits assumed)
Text: as §1, §2

LexA rGR2 / B42 eDHFR = biological target: T4, LexA rGR2 / B42 eDHFR (UniProt P06536+P0ABQ4, C656G/F620S); test: β-galactosidase activity assay, strain V505Y
T4 construct: rat Glucocorticoid Receptor (aa 524-795) with point mutations; expressed in transfected cells; host or cells: S. cerevisiae FY250
T4 sequence (P06536 524-795 F620S/C656G limits assumed): T1 sequence (P06536 524-795 F620S/C656G limits assumed)
T4 sequence (P0ABQ4 1-159): T3 sequence (P0ABQ4 1-159)
Text: as §1, §2

[3] = biological target: T5, LexA (GSG)2rGR2 / B42 (GSG)2mDHFR (UniProt P00375+P06536, C656G/F620S); test: β-galactosidase activity assay, strain V512Y
T5 construct: rat Glucocorticoid Receptor (aa 524-795) with point mutations; expressed in transfected cells; host or cells: S. cerevisiae FY250
T5 sequence (P06536 524-795 F620S/C656G limits assumed): T1 sequence (P06536 524-795 F620S/C656G limits assumed)
T5 sequence (P00375 1-187): T1 sequence (P00375 1-187)
Text: as §1, §2

LexA mDHFR / B42 rGR2 = biological target: T6, LexA mDHFR / B42 rGR2 (UniProt P00375+P06536, C656G/F620S); test: β-galactosidase activity assay, strain V495Y
T6 construct: rat Glucocorticoid Receptor (aa 524-795) with point mutations; expressed in transfected cells; host or cells: S. cerevisiae FY250
T6 sequence (P00375 1-187): T1 sequence (P00375 1-187)
T6 sequence (P06536 524-795 F620S/C656G limits assumed): T1 sequence (P06536 524-795 F620S/C656G limits assumed)
Text: as §1, §2

[4] = biological target: T7, LexA (GSG)2rGR2 / B42 eDHFR (UniProt P06536+P0ABQ4, C656G/F620S); test: β-galactosidase activity assay, strain V506Y
T7 construct: expressed in transfected cells; host or cells: S. cerevisiae FY250 with pMW106 lacZ reporter
T7 sequence (P06536 524-795 F620S/C656G limits assumed): T1 sequence (P06536 524-795 F620S/C656G limits assumed)
T7 sequence (P0ABQ4 1-159): T3 sequence (P0ABQ4 1-159)
Text: as §1, §2

[5] = biological target: T8, LexA eDHFR / B42 gly6rGR2 (UniProt P06536+P0ABQ4, C656G/F620S); test: β-galactosidase activity assay, strain V375Y
T8 construct: rat Glucocorticoid Receptor (aa 524-795) with point mutations; expressed in transfected cells; host or cells: S. cerevisiae FY250
T8 sequence (P0ABQ4 1-159): T3 sequence (P0ABQ4 1-159)
T8 sequence (P06536 524-795 F620S/C656G limits assumed): T1 sequence (P06536 524-795 F620S/C656G limits assumed)
Text: as §1, §2

[6] = biological target: T9, LexA mDHFR / B42 (GSG)rGR2 (UniProt P00375+P06536, C656G/F620S); test: β-galactosidase activity assay, strain V497Y
T9 construct: rat Glucocorticoid Receptor (aa 524-795) with point mutations; expressed in transfected cells; host or cells: S. cerevisiae FY250
T9 sequence (P00375 1-187): T1 sequence (P00375 1-187)
T9 sequence (P06536 524-795 F620S/C656G limits assumed): T1 sequence (P06536 524-795 F620S/C656G limits assumed)
Text: as §1, §2

[7] = biological target: T10, LexA (GSG)2rGR2 / B42 (GSG)2eDHFR (UniProt P06536+P0ABQ4, C656G/F620S); test: β-galactosidase activity assay, strain V510Y
T10 construct: rat Glucocorticoid Receptor (aa 524-795) with point mutations; expressed in transfected cells; host or cells: S. cerevisiae FY250
T10 sequence (P06536 524-795 F620S/C656G limits assumed): T1 sequence (P06536 524-795 F620S/C656G limits assumed)
T10 sequence (P0ABQ4 1-159): T3 sequence (P0ABQ4 1-159)
Text: as §1, §2

SMILES: C[C@@H]1C[C@H]2C3CCC4=CC(=O)C=C[C@]4(C)[C@@]3(F)[C@@H](O)C[C@]2(C)[C@@]1(O)C(=O)NCCSCCCCCCCCCCSCC[C@H](NC(=O)c1ccc(N(C)Cc2cnc3nc(N)nc(N)c3n2)cc1)C(=O)O (stereo partly shown) [D10M]
- B-gal activity [1]: 556 β-galactosidase units
- B-gal activity [2]: 497 β-galactosidase units
- B-gal activity (LexA eDHFR / B42 rGR2): 5812 β-galactosidase units
- B-gal activity (LexA rGR2 / B42 eDHFR): 1160 β-galactosidase units
- B-gal activity [3]: 6 β-galactosidase units
- B-gal activity (LexA mDHFR / B42 rGR2): 513 β-galactosidase units
- B-gal activity [4]: 2561 β-galactosidase units
- B-gal activity [5]: 9993 β-galactosidase units
- B-gal activity [6]: 308 β-galactosidase units
- B-gal activity [7]: 2314 β-galactosidase units

Source: patent US7419780B2, “Methods and assays for screening protein targets” (The Trustees of Columbia University in the City of New York, priority 2000, dated 2008)
